Measured values: patent US9023813B2 (Nutek Pharma Ltd., priority 2012, dated 2015)

Columns and labels:
[1] = Solubility determination in D2O by 1H NMR with DSS internal standard
Method: Thus the soapy-like solutions obtained were diluted until opalescent and diluted further until the opalescence visually disappeared.

male Sprague Dawley rats = test: Clinical observations of rats during administration of propofol analogs in the pharmacokinetics study
Method: (§1) Blood samples were to be taken pre-dose, during dose and post dose at designated intervals, with the blood quickly processed and stored at −70° C. until analysis.
(§2) Formulations were prepared on the morning of the dosing day and each was passed through a 0.22 μm filter prior to being administered to animals. A standard dose of 0.168 mmol/Kg per analog was administered to each of the rats. […] Analog stability in the formulations was verified by preparing each formulation and harvesting 200 μL aliquots at 0, 1, 2 and 8 hr while standing at room temperature. After harvesting, each sample was immediately frozen in dry ice until analysis; concentrations of test compounds in the samples were examined by HPLC-UV.
(§3) The animals were surgically prepared with indwelling cannula, double cannulation in carotid artery and jugular vein for i.v. infusion. The anesthetic pentobarbital was used during the surgery, and the animals were allowed to recover 3-5 days after surgery before the formulation was dosed. The dose formulation was administered intravenously via the jugular vein cannula. The 16.8 μmol/mL formulation was administered i.v. at a rate of 1 mL/Kg/min for 10 min.

[2] = Pharmacokinetics: plasma concentrations of prodrug and propofol after intravenous infusion (LC/MS/MS); conditions: for AUClast: to last detected concentration; for Mean Concentration of Propofol in Rat Plasma After Intravenous Administration: analyte = propofol released from the administered compound
Method: as §1, §2, §3
Approximately 0.20 mL blood was collected at each designated time point from carotid artery via a catheter. A total of 12 plasma samples were taken from each animal: 1 pre-dose; 2 during the dose (5 into the 10 min infusion and one just prior termination of the 10 min infusion) and 9 post-infusion at 2, 5, 15, 30 min and 1, 2, 3, 4, and 6 hr post-dose. All blood samples were transferred into plastic microcentrifuge tubes containing 5 μL of K2-EDTA (0.5M) as anti-coagulant and placed on ice until processed for plasma. Blood samples were processed for plasma by centrifugation at approximately 5° C. Plasma samples were then stored in 1.5 mL tubes, quick frozen over dry ice and kept at −70±10° C. until LC/MSMS analysis.
For each, a minimum of 6 standard point curve runs in duplicates, and minimum of 5 standards were back calculated to within ±20% of their nominal concentrations. The LLOQ of each test article in plasma was established and 6 QC samples were included in assay runs of samples to ensure assay performance.
Data Analysis. Plasma concentration versus time data was analyzed by non-compartmental approaches using the WinNonlin software program (version 5.2, Pharsight, Mountain View, Calif.) and the pharmacokinetic parameters T½, CL, Vss, AUC(0-t), AUC(0-inf), MRT, and graphs of plasma concentration versus time calculated for each.

[3] = cited from earlier work
[4] = time post-10 min i.v. infusion, 0.168 mmol/Kg
[5] = analyte = administered compound, Time (h) 0.083
[6] = analyte = administered compound, Time (h) 0.167
[7] = analyte = administered compound, Time (h) 0.2
[8] = analyte = administered compound, Time (h) 0.25
[9] = analyte = administered compound, Time (h) 0.417
[10] = analyte = administered compound, Time (h) 0.667
[11] = analyte = administered compound, Time (h) 1.166
[12] = analyte = administered compound, Time (h) 2.166
[13] = analyte = administered compound, Time (h) 3.166
[14] = analyte = administered compound, Time (h) 4.166
[15] = analyte = administered compound, Time (h) 6.166
[16] = analyte = administered compound
[17] = analyte = administered compound, extrapolated to infinity

| SMILES | Mean concentration of prodrug and propofol in rat plasma after intravenous infusion administration [2, 5] | Mean concentration of prodrug and propofol in rat plasma after intravenous infusion administration [2, 6] | Mean concentration of prodrug and propofol in rat plasma after intravenous infusion administration [2, 7] | Mean concentration of prodrug and propofol in rat plasma after intravenous infusion administration [2, 8] | Mean concentration of prodrug and propofol in rat plasma after intravenous infusion administration [2, 9] | Mean concentration of prodrug and propofol in rat plasma after intravenous infusion administration [2, 10] | Mean concentration of prodrug and propofol in rat plasma after intravenous infusion administration [2, 11] | Mean concentration of prodrug and propofol in rat plasma after intravenous infusion administration [2, 12] | Mean concentration of prodrug and propofol in rat plasma after intravenous infusion administration [2, 13] | Mean concentration of prodrug and propofol in rat plasma after intravenous infusion administration [2, 14] | Mean concentration of prodrug and propofol in rat plasma after intravenous infusion administration [2, 15] | AUClast [2, 16] | Mean Concentration of Propofol in Rat Plasma After Intravenous Administration ([2]; Time (h) 0) | other results |
| --- | --- | --- | --- | --- | --- | --- | --- | --- | --- | --- | --- | --- | --- | --- |
| CC(C)c1cccc(C(C)C)c1OC(=O)OCCCO[C@H]1O[C@H](CO)[C@@H](O)[C@H](O)[C@H]1O [Compound 33] | 16.5 nM | 23.1 nM | 9.59 nM | BQL | BQL | BQL | BQL | BQL | BQL | BQL | BQL | 0.00304 µM·h | BQL | Relative solubility [1]: 5.2 (8.1)^4; Rats recovered at (male Sprague Dawley rats; [4]): recovered at about 30 min; Mean concentration of prodrug and propofol in rat plasma after intravenous infusion administration ([2]; analyte = administered compound, Time (h) 0): BQL; Mean Concentration of Propofol in Rat Plasma After Intravenous Administration ([2]; Time (h) 4.166): BQL; Mean Concentration of Propofol in Rat Plasma After Intravenous Administration ([2]; Time (h) 6.166): BQL; Pro-drug behaviour (release of propofol in vivo) ([2]; rats, releasing the propofol in a matter of minutes after infusion): very efficient pro-drugs |
| CC(C)c1cccc(C(C)C)c1O [Propofol, 2,6-diisopropylphenol, reference compound] | 21795 nM | 31510 nM | 19613 nM | 13370 nM | 3827 nM | 3122 nM | 1642 nM | 841 nM | 332 nM | 259 nM | 230 nM | 10.576 µM·h | BQL | Onset ([3]; anesthetic onset): < 30 s; Duration of action ([3]; in vivo): ~5 min; Pain on administration (share of uses) ([3]; standard lipid formulation): 80%; Rats soporous at (male Sprague Dawley rats; [4]): Rats soporous at about 4 min and; Rats recovered at (male Sprague Dawley rats; time post-10 min infusion, 5% cremophor vehicle): recovered at about 1.5 hr; AUCinf [2, 17]: 12.634 µM·h; MRTinf [2, 17]: 3.48 h; CLp ([2]; analyte = administered compound, total body clearance, dose/AUCinf): 264.7 mL/min/kg; Vdss ([2]; analyte = administered compound, volume of distribution): 61.2 L/kg |
